Reference: patent US10758513B2, “Modulators of mitochondrial protein import” (THE REGENTS OF THE UNIVERSITY OF CALIFORNIA, priority 2011, dated 2020)

Key:
[1] = test system: tim10-1 mutant overexpressing import components; assay: Yeast growth inhibition, tim10-1 mutant overexpressing import components; assay type: cell-based
Description: In general, a standard set of genetic and molecular techniques were used to generate the strains in this study (31, 32). Screening strains were generated based on previously characterized temperature sensitive mutants (see supplementary table 1). The snq1 and pdr5 deletions were introduced in each strain by strain mating with MDY326 or PCR-mediated deletion (33, 34). Overexpression strains were generated by transforming 2p yeast shuttle vectors carrying the gene of interest with the native promoter into the tim10-1 strain using a standard LiCl protocol (35). Transformed yeast was maintained on selective media appropriate for the plasmid's auxotrophic marker. Strains lacking mitochondrial DNA (rho null) were generated by two rounds of selection of the parent on YPD plates supplemented with ethidium bromide (40 μg/ml) followed by two rounds of single colony selection on YPD plates.
A primary screen was performed using freshly streaked tim10-1 diluted in YPD to an OD600 of approximately 0.0002 and kept on ice throughout the screening run. […] Each plate was shaken in a Beckman orbital shaker to resuspend settled cells, and the OD600 in each well was read by a Wallac Victor plate reader (Perkin Elmer). The top 600 growth inhibitory compounds were determined and assembled into two plates. […]

[2] = test system: HSF1 hESCs; assay: Assays in human embryonic stem cells (HSF1); assay type: cell-based; conditions: 20 μM; alkaline phosphatase staining
Protocol: Human embryonic stem cell (hESCs) line hSF1 was cultured in Stem Pro SFM (Gibco) supplemented with 10 ng/ml bFGF on Matrigel (BD Biosciences) coated plates under 5% CO2, 95% air. Differentiation involved culturing cells in Stem Pro SFM with 10 μM retinoic acid (Acros Organics) for 4 days. Cells were treated with the specific concentration of the compounds or 1% DMSO as a control. For the induction of apoptosis, cells were exposed to 20 μM actinomycin D (Sigma) with or without 100 μM z-VAD-FMK (MP Biomedical). Following treatment, cells were fixed with 3.7% formaldehyde for indirect immunofluorescence study or lysed with Triton buffer (25 mM Tris-HCl pH 7.5, 150 mM NaCl, 1% Triton X-100, 1 mM EDTA) for analysis by SDS-PAGE. Bright field images were acquired with Exi Blue (QImaging). Immunofluorescent images were acquired with a 63× oil immersion objective on an LSM 5 PASCAL Laser Scanning Microscope (Carl Zeiss). Antibodies against cyt c (BD Pharmingen), Tom20 (Santa Cruz), cleaved caspase-3 (Cell Signaling) and poly (ADP-ribose) polymerase (Cell Signaling) were purchased from the indicated vendors. Alkaline phosphatase activity staining was performed with the leukocyte alkaline phosphatase kit (Sigma) as per manufacturer's protocol. […]

[3] = target: Erv2 (Saccharomyces cerevisiae, UniProt Q12284); assay: In vitro Erv2 activity, Amplex Red-HRP assay; assay type: biochemical, yeast
Erv2, sequence (Q12284 whole entry): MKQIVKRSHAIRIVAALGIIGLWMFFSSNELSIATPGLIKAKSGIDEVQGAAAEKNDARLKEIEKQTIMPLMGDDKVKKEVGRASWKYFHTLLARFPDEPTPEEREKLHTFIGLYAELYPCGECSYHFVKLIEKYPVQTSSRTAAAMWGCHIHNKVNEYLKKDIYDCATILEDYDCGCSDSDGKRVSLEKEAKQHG

[4] = test system: HEK293 cells; assay: Treatment of HEK293 cells with MitoBloCK-6; assay type: cell-based; conditions: unpublished data
Protocol: For microscopy experiments, HeLa or HEK293 cells were transiently transfected with Su9-EGFP (Lipofectamine, Invitrogen) at 80% confluency. 12 hours post transfection, cells were co-labeled with Mitotracker red CMXRos (Invitrogen) and visualized with a microscope (Axiovert 200M Carl Zeiss) using a Plan-Fluor 63× oil objective. Images were acquired at room temperature with a charge-coupled device camera (ORCA ER, Hamamatsu Photonics) controlled by Axiovision software (Carl Zeiss). Image files were processed by Photoshop software (Adobe). […] For cyt c release assays, a cell fractionation kit (MitoSciences) was used. Briefly, HeLa or HEK293 cells were grown in 10 cm^2 dishes to 80% confluency and then cells were treated with DMSO or MitoBloCK-6 in complete medium for 12-16 h. […] Cells were fractionated to obtain cytosolic and mitochondrial fractions; 100 μg of each fraction was analyzed by SDS-PAGE. Blots were probed with ApoTrack cyt c apoptosis antibody cocktail (MitoSciences).

Structure (SMILES): NC(=S)N/N=C/c1c(O)c(Br)cc2oc3c(c12)CCCC3 [MitoBloCK-1]
- growth inhibition of tim10-1 mutant with overexpression of import components [1]: did not alter the ability of MitoBloCK-1 to inhibit growth

Structure (SMILES): Oc1c(Cl)cc(Cl)cc1/C=N/c1ccc(Nc2ccccc2)cc1 [MitoBloCK-6]
- time at which hESC viability started to decline [2]: > 5 h
- IC50 [3]: 1400 nM
- morphology and viability in HEK293 cells [4]: showed similar results
